# Experimental data as given in the supplement of paper PMC4862054.
# How the values were obtained:
# Conditions in all cases: 72 h
# BT-549 [1] = system: BT-549
# Method in brief: (§1)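 Two sequential readouts followed a 72 h incubation of breast cancer cell lines with compound at 5 concentrations in 10-fold steps over a compound-specific 10,000-fold range: CellTox Green fluorescence (485/520 nm) for cell death, then CellTiter-Glo luminescence, after 10 min at room temperature, for viability. Each plate was normalised to 0.1 % DMSO and a positive kill control. Dose-response curves were fitted for EC50, censored at the top concentration.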
# CAL-85-1 = system: CAL-85-1
# Method in brief: as §1
# HCC1143 [2] = system: HCC1143
# Method in brief: as §1
# HCC1599 [3] = system: HCC1599
# Method in brief: as §1
# HDQ-P1 = system: HDQ-P1
# Method in brief: as §1
# Hs578T [4] = system: Hs578T
# Method in brief: as §1
# MCF-10A = system: MCF-10A
# Method in brief: as §1
# BT-474 [5] = system: BT-474
# Method in brief: (§2)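 Viability of breast cancer cell lines was measured with CellTiter-Blue after 72 h of incubation on compound-loaded 384-well plates. Cells were seeded in 20 µl onto compound dissolved in 5 µl medium, and 2.5 µl reagent was added for 2 h at 37 °C before reading at 560/590 nm. EC50 was fitted from percent-inhibition dose-response data censored at the highest concentration, normalised per plate to vehicle and a positive kill control, with zero drug sensitivity score rows dropped.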
# BT-549 [6] = system: BT-549; remark: listed apart in the source
# Method in brief: as §2
# CAL-120 [7] = system: CAL-120
# Method in brief: as §2
# HCC1143 [8] = system: HCC1143; remark: listed apart in the source
# Method in brief: as §2
# HCC1599 [9] = system: HCC1599; remark: listed apart in the source
# Method in brief: as §2
# HCC1937 [10] = system: HCC1937
# Method in brief: as §2
# Hs578T [11] = system: Hs578T; remark: listed apart in the source
# Method in brief: as §2
# MDA-MB-231 = system: MDA-MB-231
# Method in brief: as §2
# MDA-MB-436 [12] = system: MDA-MB-436
# Method in brief: as §2
# MDA-MB-468 [13] = system: MDA-MB-468
# Method in brief: as §2
# MFM-223 [14] = system: MFM-223
# Method in brief: as §2
# SK-BR-3 = system: SK-BR-3
# Method in brief: as §2
# BT-474 [15] = system: BT-474; remark: listed apart in the source
# Method in brief: as §1
# CAL-148 = system: CAL-148
# Method in brief: as §1
# HCC1937 [16] = system: HCC1937; remark: listed apart in the source
# Method in brief: as §1
# MDA-MB-468 [17] = system: MDA-MB-468; remark: listed apart in the source
# Method in brief: as §1
# MFM-223 [18] = system: MFM-223; remark: listed apart in the source
# Method in brief: as §1
# CAL-120 [19] = system: CAL-120; remark: listed apart in the source
# Method in brief: as §1
# DU-4475 = system: DU-4475
# Method in brief: as §1
# MDA-MB-436 [20] = system: MDA-MB-436; remark: listed apart in the source
# Method in brief: as §1
# MDA-MB-453 = system: MDA-MB-453
# Method in brief: as §1
"EC50, CellTiter-Blue viability (BT-474 [5]) [nM]","EC50, CellTiter-Blue viability (BT-549 [6]) [nM]","EC50, CellTiter-Blue viability (HCC1143 [8]) [nM]","EC50, CellTiter-Blue viability (HCC1599 [9]) [nM]","EC50, CellTiter-Blue viability (HCC1937 [10]) [nM]","EC50, CellTiter-Blue viability (MDA-MB-231) [nM]","EC50, CellTiter-Blue viability (MDA-MB-436 [12]) [nM]","EC50, CellTiter-Blue viability (MDA-MB-468 [13]) [nM]","EC50, CellTiter-Blue viability (SK-BR-3) [nM]",SMILES,"EC50, CellTox Green (BT-549 [1]) [nM]","EC50, CellTox Green (CAL-85-1) [nM]","EC50, CellTox Green (HCC1143 [2]) [nM]","EC50, CellTox Green (HCC1599 [3]) [nM]","EC50, CellTox Green (HDQ-P1) [nM]","EC50, CellTox Green (Hs578T [4]) [nM]","EC50, CellTox Green (MCF-10A) [nM]","EC50, CellTiter-Blue viability (CAL-120 [7]) [nM]","EC50, CellTiter-Blue viability (Hs578T [11]) [nM]","EC50, CellTiter-Blue viability (MFM-223 [14]) [nM]","EC50, CellTox Green (BT-474 [15]) [nM]","EC50, CellTox Green (CAL-148) [nM]","EC50, CellTox Green (HCC1937 [16]) [nM]","EC50, CellTox Green (MDA-MB-468 [17]) [nM]","EC50, CellTox Green (MFM-223 [18]) [nM]","EC50, CellTox Green (CAL-120 [19]) [nM]","EC50, CellTox Green (DU-4475) [nM]","EC50, CellTox Green (MDA-MB-436 [20]) [nM]","EC50, CellTox Green (MDA-MB-453) [nM]"
–,–,–,–,–,–,–,–,–,CN(c1ccccc1CNc1nc(Nc2ccc3c(c2)CC(=O)N3)ncc1C(F)(F)F)S(C)(=O)=O,> 10000,4490,72.4,> 10000,20.9,1290,1730,–,–,–,–,–,–,–,–,–,–,–,–
13.5,45.1,19.8,7.37,27.9,33.5,26.4,49.8,3.24,COc1ncc(-c2ccc3nccc(-c4ccnnc4)c3c2)cc1NS(=O)(=O)c1ccc(F)cc1F,–,–,–,–,–,511,349,20.1,36.6,8.62,134,74.7,299,160,22.4,–,–,–,–
–,1310,258,70.8,3300,435,6370,772,588,C[C@@]1(C(=O)Nc2ccc(F)nc2)CCCN1c1nc(Nc2cc(C3CC3)n[nH]2)c2cccn2n1,–,–,1350,–,5000,–,3230,1930,4740,1310,–,> 10000,–,3.79,587,4500,–,–,–
93.7,44.8,64,721,87.1,177,429,353,28,COc1c(C)cnc(Cn2cnc3c(Cl)nc(N)nc32)c1C [BIIB021],–,3950,–,–,1960,321,189,26.9,47,57.7,1790,84.5,–,–,–,–,293,–,–
7.19,7.83,6.46,79.5,2.93,3.89,34.9,2.95,2.77,CC(C)C[C@H](NC(=O)[C@H](Cc1ccccc1)NC(=O)c1cnccn1)B(O)O [Bortezomib],49.3,5.02,165,–,15,11.7,210,5.42,22.2,6.67,32.8,17.2,11.3,1.94,13,43.8,229,32.4,156
474,1620,361,295,770,835,969,200,101,C#Cc1cccc(Nc2ncnc3cc(OC)c(OCCCCCCC(=O)NO)cc23)c1 [CUDC-101],–,208,–,–,–,6670,8030,294,394,145,2720,1700,–,775,1600,5100,–,792,271
160,141,46.8,444,24.7,56.1,78.5,98.2,66.4,COc1cccc2c1C(=O)c1c(O)c3c(c(O)c1C2=O)C[C@@](O)(C(C)=O)C[C@@H]3O[C@H]1C[C@H](N)[C@H](O)[C@H](C)O1 [Daunorubicin],–,–,–,–,–,–,–,41.8,150,667,–,–,–,100,–,–,–,953,–
